Reference: PMC12299847, “Macroalgae-Inspired Brominated Chalcones as Cosmetic Ingredients with the Potential to Target Skin Inflammaging” (Marine Drugs, 2025)
Structures can show the parent of a compound that is named as a salt.

Experiments:
Nrf2 = assay: KeratinoSens assay, Nrf2 luciferase reporter; assay type: cell-based, human; details: 100 µM, positive control
Description: The KeratinoSens™ assay was originally developed to assess the skin sensitization potential of Nrf2 activation, but it has also been utilized to evaluate the ability of natural compounds to induce this transcription factor [46, 47]. In this study, we assessed the capacity of chalcones 1 and 2 to activate Nrf2 after 24 and 48 h (Figure 8A–F).
Selected compounds (chalcones 1 and 2), and the positive control, DMF, were dissolved in sterile DMSO. Intermediate dilutions were prepared in culture medium, including the final concentration to be added to the 96-well plate, with a final volume of 200 µL per well. The KeratinoSens™ assay was conducted as previously described. In brief, cells were seeded at a density of 10,000 cells per well in 96-well white opaque plates (Greiner Bio-One GmbH, cat. no. 655083, Kremsmünster, Austria) and incubated for 24 h. The medium was then replaced with fresh medium containing 1% FBS and the test compounds, and cells were incubated for an additional 24 and 48 h. DMF was used as the positive control since it is a known Nrf2 activator. Cell viability was assessed in the same cells using resazurin. After 20 or 44 h of exposure to the test compounds, 50 µM of resazurin solution (in sterile PBS) was added to each well, and the plates were incubated for 4 h at 37 °C, 5% CO2 Following the resazurin incubation, the supernatant was transferred to a transparent 96-well plate, and absorbance was measured at 570 and 620 nm using a Synergy HT multi-mode microplate reader (BioTek, Bad Friedrichshall, Germany). To measure luciferase activity, cells in the white opaque 96-well plates were washed with 1× PBS. An equal volume of 1× PBS and lysis buffer (One-GLO Luciferase, cat. no. E6130, Promega, Madison, WI, USA) was added to the wells, and the plates were incubated for 20 min at room temperature. Luminescence was then measured using a FLUOstar OMEGA Microplate Reader (BMG Labtech GmbH, Ortenberg, Germany).
Figure 8 Nrf2 activation using the KeratinoSens™ assay in HaCaT cells transfected with an Nrf2 luciferase reporter construct, incubated for 24 h (A–C) or 48 h (D–F) with chalcones 1 and 2. DMF was used as a positive control. Data represent the results from four independent experiments. Non-linear regression analysis was performed using GraphPad Prism v.9.0.0 for Windows. The blue line represents the results of cell viability (% regarding the control) and the green line represents fold induction. Statistical analysis: one ANOVA with Dunnett’s multiple comparisons test, where significance includes. * p < 0.05, ** p < 0.01, *** p < 0.0005, and **** p < 0.0001.

[1] = tested on: NO production in LPS-stimulated RAW 264.7 macrophages; assay: NO production (Griess assay) in LPS-stimulated macrophages; assay type: cell-based, murine; details: RAW 264.7, LPS 100 ng/mL; for IC50: Mus musculus, RAW264.7, 24 h, Griess
Description: The anti-inflammatory potential of chalcones 1–7 was evaluated in macrophages cultured in the presence or absence (control) of LPS, as depicted in Figure 4. Under basal conditions (unstimulated, control), macrophages produce low levels of nitrites (≈12%). […] Each chalcone was tested at concentrations previously established as non-cytotoxic in macrophages, trying to ensure that observed changes in NO levels were not due to reduced cell viability.
The production of NO was evaluated by measuring nitrite accumulation in culture supernatants using the previously described Griess assay. Cells were seeded at a concentration of 5.0 × 10^4 cells/mL in a 96-well plate (200 μL/well) and allowed to stabilize overnight at 37 °C. Afterwards, the cells were treated with different concentrations of compound solutions and pre-incubated for 1 h at 37 °C. Subsequently, an LPS in PBS solution was added to each well, achieving a final concentration of 100 ng/mL, and the plate was left to incubate for 24 h. An amount of 150 μL of the cell culture supernatant was then transferred to a fresh 96-well plate, and an equal amount of Griess reagent [comprising a 1:1 mixture of 1% (w/v) sulphanilamide in 5% (v/v) phosphoric acid and 0.1% (w/v) naphthylethylenediaminedihydrochloride] was added. Following a 30 min incubation at room temperature in the dark, the absorbance was recorded at 550 nm using a Biotek Synergy HT plate reader (Biotek, CA, USA). The nitrite concentration in the supernatants was determined by comparing the absorbance of each sample to a sodium nitrite standard curve. The results, obtained from at least three independent experiments performed in duplicate, were expressed as a percentage of NO production by cells versus chemical concentration, relative to LPS condition (100%).
Figure 4 NO production by macrophages treated with LPS (100 ng/mL) or not (control) in the presence of chalcones 1–7. Results are expressed as a percentage of NO production by cells treated with LPS (100 ng/mL). Each value represents the mean ± SEM of four independent experiments in duplicate. Statistical analysis: one ANOVA with Dunnett’s multiple comparisons test, where p< 0.05 was considered significant. *** p < 0.005, relative to the control, and ^# p < 0.05, ^## p < 0.01, ^### p < 0.0005, and ^#### p < 0.0001, relative to LPS condition.

[2] = tested on: iNOS protein levels in RAW264.7 macrophages; assay: Western blot analysis of iNOS expression in LPS-stimulated macrophages; assay type: cell-based, murine; details: for iNOS expression level: normalized against LPS condition
Description: To investigate the underlying mechanism of action of the most promising brominated chalcones (1 and 2), their effects on iNOS protein levels were assessed in LPS-stimulated macrophages at different time points (4, 6, and 24 h). The non-treated (NT) condition, consisting of macrophages stimulated with LPS but receiving no chalcone treatment, was used as the reference for maximal iNOS induction under inflammatory conditions and served as a positive control. The selected concentrations (7.5 μM and 15 μM) were selected based on chalcones 1 and 2 cytocompatibility (Figure 3) and efficacy in reducing NO production (Figure 4). Since NO production is a direct consequence of iNOS enzymatic activity, where the enzyme catalyzes the conversion of L-arginine to NO following inflammatory stimulation such as LPS, this provides a functional readout of iNOS expression and activity.
Here, we focused on validating iNOS expression at the protein level by western blot (Figure 6). While gene-level expression was not assessed, it is well established that LPS stimulation induces both iNOS transcription and translation in RAW 264.7 macrophages. Moreover, changes observed at the protein level are often closely associated with upstream transcriptional or translational modulation. Therefore, quantifying iNOS protein levels provides a biologically relevant measure of the chalcones’ inhibitory effects on this key inflammatory mediator.
The expression of the iNOS enzyme was analyzed by western blot. RAW264.7 macrophages were seeded at a density of 1 × 10^6 cells/well in a 6-well plate and incubated for 24 h at 37 °C in a humidified atmosphere containing 5% CO2. After incubation, cells were treated with 7.5 µM or 15 µM of the most promising chalcones (1 and 2) for 30 min, followed by the addition of LPS to have a final concentration of 100 ng/mL. Cells were then incubated for 4, 6, or 24 h. At each time point, cells were washed with PBS and lysed in RIPA buffer. The lysates were collected in Eppendorf tubes and kept on ice, with intermittent vortexing to ensure thorough lysis. Samples were centrifuged at 18,000× g for 16 min at 4 °C, and the supernatant was collected. Total protein concentration was determined using the Pierce™ BCA Protein Assay Kit (Thermo Scientific, 23225, Waltham, MA, USA), following the manufacturer’s instructions. Equal amounts of protein (25 µg) were loaded onto Bolt™ 8% Bis-Tris Mini Protein Gels (Invitrogen™, NW00087BOX, Waltham, MA, USA) and separated via electrophoresis. Proteins were then transferred onto nitrocellulose membranes (Invitrogen™, IB24002) using the iBlot® 2 dry transfer system (Invitrogen™, Waltham, MA, USA). After transfer, membranes were sectioned to separate the iNOS bands from those of the housekeeping protein GAPDH. Membranes were blocked for 1 h at room temperature in TBS-T containing 5% BSA and subsequently incubated overnight at 4 °C with primary antibodies against iNOS (Cell Signaling Technology, 16713120S, Danvers, MA, USA) or GAPDH (Abcam, ab181602, Cambridge, UK), diluted in TBS-T with 1% BSA. On the following day, membranes were washed three times with TBS-T and incubated for 1 h at room temperature with an HRP-conjugated secondary antibody (Cell Signaling Technology, 7074S) diluted in TBS-T with 1% BSA. After three additional washes, signal detection was performed using Clarity™ Western ECL Substrate (Bio-Rad, 1705061, Hercules, CA, USA), and chemiluminescent signals were acquired using the Odyssey FC imaging system (LI-COR, Lincoln, NE, USA). Densitometric analysis of iNOS bands was performed using Image Studio™ Software (version 5.2, LI-COR, Lincoln, NE, USA), with values normalized to the corresponding GAPDH bands.
Figure 6 iNOS expression level after treatment of 4, 6, and 24 h with chalcones 1 and 2 in macrophage cell line. Results are expressed as volume arbitrary unit (A). […]

[3] = Resazurin cell viability assay in HaCaT keratinocytes; assay type: cell-based, human; details: human, HaCaT keratinocytes, resazurin, read-out: IC50 (cell viability, cytotoxicity)
Description: (§1) To evaluate the effects of chalcones 1–7 on cell viability after 24 h, a resazurin assay was performed using two cell lines: human HaCaT keratinocytes (HaCaT, CLS 300493), representing the epidermal layer, and murine RAW 264.7 macrophages (RAW 264.7, ATCC TIB-71), which model immune cells involved in dermal inflammatory responses. For the keratinocyte cell line, all seven brominated and non-brominated chalcones were tested across a concentration range from 2.5 μM to 125 μM (Figure 2).
(§2) Human keratinocytes (HaCaT, CLS 300493, Eppelheim, Germany) were cultured in DMEM supplemented with heat-inactivated FBS, and a penicillin and streptomycin antibiotic solution. The cell culture of keratinocytes was washed with 6 mL of phosphate buffer solution with 0.05% EDTA (Sigma-Aldrich, St. Louis, MO, USA) and detached using 3 mL of 0.05% trypsin + 0.02% EDTA in PBS solution when the cells reached 70–80% confluence in cell culture flasks. DMEM was also used to cultivate the mouse macrophage cell line (RAW 264.7, ATCC TIB-71, Manassas, VA, USA) together with 10% (v/v) non-inactivated FBS, 1.5 g/L sodium bicarbonate, and 100 U/mL penicillin and 100 μg/mL streptomycin stock (antibiotic solution). The macrophage culture was mechanically detached using a cell scraper, and the final amount of DMEM media with the cells was sub-cultured in a 1:10 ratio to the cellular suspension.
(§3) The resazurin reduction assay was employed to evaluate the metabolic activity of human epidermal keratinocyte (HaCaT) and murine macrophage (RAW264.7) cell lines, as outlined in a previous study. In brief, HaCaT cells (1.0 × 10^5 cells/mL) and RAW264.7 cells (5.0 × 10^4 cells/mL) were seeded in 96-well plates (200 μL/well) and incubated overnight at 37 °C to allow for cell attachment. Following this, the cells were treated with different concentrations of the test compounds and kept at 37 °C for 24 h. After 20 h, resazurin (500 μM in sterile phosphate buffer solution, pH 7.4) was added to each well to achieve a final concentration of 50 μM, followed by an additional incubation of 4 h. Absorbance was then measured at wavelengths of 570 and 620 nm using a SpectraMax Plus 384 absorbance microplate spectrophotometer (Molecular Devices, San Jose, CA, USA). Each experiment was conducted in triplicate, with a minimum of three independent assays. The results were graphically presented as the percentage of cell viability versus chemical concentration, relative to the control.
(§4) Figure 2 Cytotoxicity of chalcones 1–7 using a resazurin reduction assay in HaCaT cells by comparison with the control. Bar graphs represent the mean ± SEM of at least three independent experiments performed in triplicate. Statistical analysis: one ANOVA with Dunnett’s multiple comparisons test, where p < 0.05 was considered significant when compared to the control condition. * p < 0.05, ** p < 0.01, and *** p < 0.0005.

HaCaT keratinocytes = assay: as above; assay type: cell-based, human; details: HaCaT, 24 h
Description: as §1, §2, §3, §4

In the case of COC(=O)/C=C/C(=O)OC [DMF, dimethyl fumarate, reference compound], the “Nrf2 activation, fold increase” value (Nrf2) is reported as 8.36 fold.
For COc1ccc(/C=C/C(=O)c2cc(OC)c(OC)cc2Br)cc1OC [Chalcone 2], the IC50 [1] was 0.77 ± 0.31 µM, the iNOS expression level ([2]; 7.5 µM, 4 h) was 38.9% and the “maximum iNOS suppression” value ([2]; 7.5 µM, 24 h) was ~ 80%. The iNOS expression level ([2]; 7.5 µM, 24 h) was 20.2%, the iNOS expression level ([2]; 15 µM, 4 h) was 20.5% and the iNOS expression level ([2]; 15 µM, 6 h) was 5.7%. The iNOS suppression ([2]; 15 µM, 6 h, stable up to 24 h) was ~ 95% and the iNOS expression level ([2]; 15 µM, 24 h) was 6.1%.
For COc1ccc(/C=C/C(=O)c2ccc(OC)c(OC)c2)cc1OC [Chalcone 3], the IC50 at 24 h [3] was 62.1 ± 1.07 µM, the “reduction in cell viability” value (HaCaT keratinocytes; at 62.5 and 125 μM) was greater than 50% and the IC50 [1] was 4.73 ± 0.67 µM. The “concentration that reduced NO production to levels similar to the control” value ([1]; 24 h) was 125 µM.
With COc1ccc(/C=C2\CCc3cc(OC)c(OC)cc3C2=O)cc1OC [Chalcone 7] the “maximal reduction in viability” value (HaCaT keratinocytes; significant effects only at 62.5 μM and 125 μM) was no more than 15% and the “reduction of NO production in LPS-stimulated cells” value ([1]; 24 h) was 12%.
